Assay results as given in patent US8247211B2, “Glycopeptide antibiotics” (American Cyanamid Company, priority 2001, dated 2012).
Converted amounts (≈) assume the structure as drawn.

How the values were obtained:
Experiment in all cases: In vitro antibacterial evaluation: minimum inhibitory concentration (MIC), broth dilution method
Type in all cases: cell-based
Enterococcus sp. = details: 18 hours at 35° C.
Procedure, shortened: (§1)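 Test strains, among them recent clinical isolates carrying methicillin, penicillin and/or vancomycin resistance, were inoculated at 5×10^5 CFU/mL. A broth dilution series spanning 64-0.06 μg/mL in Muller-Hinton II […] (NCCLS M7-A2) defined the MIC as the lowest growth-inhibiting concentration.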

Escherichia coli = details: 18 hours at 35° C.
Procedure, shortened: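 Using Muller-Hinton II […] and an inoculum of 5×10^5 CFU/mL, antibiotic dilutions from 64 down to 0.06 μg/mL were tested following NCCLS M7-A2. The MIC is the lowest concentration inhibiting growth, including in methicillin-, penicillin- or vancomycin-resistant clinical isolates.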

Staphylococcus sp. = test system: Staphylococcus sp.
Procedure, shortened: as §1

Streptococcus sp. = details: 18 hours at 35° C.
Procedure, shortened: as §1

[1] = broth dilution, inoculum 5×10^5 CFU/mL

CC(C)=CCCC(C)=CCCC(C)=CCOc1cccc(C2OCC3OC(OC4C(CO)OC(Oc5ccc(CC6NC(=O)C(C(C)c7ccccc7)NC(=O)CNC(=O)C(CO)NC(=O)C(C(O)C7CNC(=N)N7C7OC(CO)C(O)C(O)C7O)NC(=O)C(C(O)C7CNC(=N)N7)NC6=O)cc5)C(O)C4O)C(O)C(O)C3O2)c1 (stereo not shown) [Example 185]
MIC Enterococcus avium (GC 4558) (Enterococcus sp.; Enterococcus avium (GC 4558)): 64 µg/mL (≈ 39.9 µM) | MIC Enterococcus faecalis (ATCC 29212) (Enterococcus sp.; Enterococcus faecalis (ATCC 29212)): >64 µg/mL | MIC Enterococcus faecalis (GC 2242) (Enterococcus sp.; Enterococcus faecalis (GC 2242)): >64 µg/mL | MIC Enterococcus faecalis (GC 2691) (Enterococcus sp.; Enterococcus faecalis (GC 2691)): >64 µg/mL | MIC Enterococcus faecalis (GC 3059) (Enterococcus sp.; Enterococcus faecalis (GC 3059)): >64 µg/mL | MIC Enterococcus faecalis (GC 4552) (Enterococcus sp.; Enterococcus faecalis (GC 4552)): >64 µg/mL | MIC Enterococcus faecalis (GC 4553) (Enterococcus sp.; Enterococcus faecalis (GC 4553)): 32 µg/mL (≈ 20 µM) | MIC Enterococcus faecalis (GC 4554) (Enterococcus sp.; Enterococcus faecalis (GC 4554)): >64 µg/mL | MIC Enterococcus faecalis (GC 6189) (Enterococcus sp.; Enterococcus faecalis (GC 6189)): >64 µg/mL | MIC Enterococcus faecium (GC 2243) (Enterococcus sp.; Enterococcus faecium (GC 2243)): 32 µg/mL (≈ 20 µM) | MIC Enterococcus faecium (GC 4556) (Enterococcus sp.; Enterococcus faecium (GC 4556)): >64 µg/mL | MIC Enterococcus faecium (GC 4557) (Enterococcus sp.; Enterococcus faecium (GC 4557)): >64 µg/mL | MIC Enterococcus avium (GC 4558) (Enterococcus sp.; [1]): 64 µg/mL (≈ 39.9 µM) | MIC Enterococcus faecalis (ATCC 29212) (Enterococcus sp.; [1]): >64 µg/mL | MIC Enterococcus faecalis (GC 2242) (Enterococcus sp.; [1]): >64 µg/mL | MIC Enterococcus faecalis (GC 2691) (Enterococcus sp.; [1]): >64 µg/mL | MIC Enterococcus faecalis (GC 3059) (Enterococcus sp.; [1]): >64 µg/mL | MIC Enterococcus faecalis (GC 4552) (Enterococcus sp.; [1]): >64 µg/mL | MIC Enterococcus faecalis (GC 4553) (Enterococcus sp.; [1]): 32 µg/mL (≈ 20 µM) | MIC Enterococcus faecalis (GC 4554) (Enterococcus sp.; [1]): >64 µg/mL | MIC Enterococcus faecalis (GC 6189) (Enterococcus sp.; [1]): >64 µg/mL | MIC Enterococcus faecium (GC 2243) (Enterococcus sp.; [1]): 32 µg/mL (≈ 20 µM) | MIC Enterococcus faecium (GC 4556) (Enterococcus sp.; [1]): >64 µg/mL | MIC Enterococcus faecium (GC 4557) (Enterococcus sp.; [1]): >64 µg/mL | MIC Escherichia coli (ATCC 25922) (Escherichia coli; Escherichia coli (ATCC 25922)): >64 µg/mL | MIC Escherichia coli (GC 4559) (Escherichia coli; Escherichia coli (GC 4559)): >64 µg/mL | MIC Escherichia coli (GC 4560) (Escherichia coli; Escherichia coli (GC 4560)): >64 µg/mL | MIC Staphylococcus aureus (ATCC 29213) (Staphylococcus sp.; strain ATCC 29213): >64 µg/mL | MIC Staphylococcus aureus (GC 1131) (Staphylococcus sp.; strain GC 1131): >64 µg/mL | MIC Staphylococcus aureus (GC 3051) (Staphylococcus sp.; strain GC 3051): >64 µg/mL | MIC Staphylococcus aureus (GC 3053) (Staphylococcus sp.; strain GC 3053): >64 µg/mL | MIC Staphylococcus aureus (GC 4541) (Staphylococcus sp.; strain GC 4541): >64 µg/mL | MIC Staphylococcus aureus (GC 4542) (Staphylococcus sp.; strain GC 4542): >64 µg/mL | MIC Staphylococcus aureus-SMITH (GC 4543) (Staphylococcus sp.; strain GC 4543): >64 µg/mL | MIC Staphylococcus aureus (GC 4544) (Staphylococcus sp.; strain GC 4544): >64 µg/mL | MIC Staphylococcus aureus (GC 4545) (Staphylococcus sp.; strain GC 4545): >64 µg/mL | MIC Staphylococcus haemolyticus (GC 4546) (Staphylococcus sp.; strain GC 4546): >64 µg/mL | MIC Coagulase Negative Staphylococcus (GC 4547) (Staphylococcus sp.; strain GC 4547): >64 µg/mL | MIC Coagulase Negative Staphylococcus (GC 4548) (Staphylococcus sp.; strain GC 4548): >64 µg/mL | MIC Coagulase Negative Staphylococcus (GC 4549) (Staphylococcus sp.; strain GC 4549): >64 µg/mL | MIC Coagulase Negative Staphylococcus (GC 4551) (Staphylococcus sp.; strain GC 4551): >64 µg/mL | MIC Coagulase Negative Staphylococcus (GC 6257) (Staphylococcus sp.; strain GC 6257): >64 µg/mL | MIC Streptococcus agalactiae (GC 4564) (Streptococcus sp.; Streptococcus agalactiae (GC 4564)): 1 µg/mL (≈ 0.624 µM) | MIC Streptococcus pneumoniae (ATCC 6301) (Streptococcus sp.; Streptococcus pneumoniae (ATCC 6301)): 0.12 µg/mL (≈ 0.0748 µM) | MIC Streptococcus pneumoniae (GC 1894) (Streptococcus sp.; Streptococcus pneumoniae (GC 1894)): <0.06 µg/mL | MIC Streptococcus pneumoniae (GC 4565) (Streptococcus sp.; Streptococcus pneumoniae (GC 4565)): <0.06 µg/mL | MIC Streptococcus pyogenes (GC 4563) (Streptococcus sp.; Streptococcus pyogenes (GC 4563)): 16 µg/mL (≈ 9.98 µM) | MIC Streptococcus agalactiae (GC 4564) (Streptococcus sp.; [1]): 1 µg/mL (≈ 0.624 µM) | MIC Streptococcus pneumoniae (ATCC 6301) (Streptococcus sp.; [1]): 0.12 µg/mL (≈ 0.0748 µM) | MIC Streptococcus pneumoniae (GC 1894) (Streptococcus sp.; [1]): <0.06 µg/mL | MIC Streptococcus pneumoniae (GC 4565) (Streptococcus sp.; [1]): <0.06 µg/mL | MIC Streptococcus pyogenes (GC 4563) (Streptococcus sp.; [1]): 16 µg/mL (≈ 9.98 µM)
